Laboratory results from patent publication US20180353501A1 (Arvinas, Inc., priority 2017, published 2018).

Key:
Experiment in all cases: Western blot MAPK family degradation selectivity, MDA-MB-231 cells
Type in all cases: cell-based
Conditions in all cases: increasing concentrations
[1] = biological target: T1, p38γ (Homo sapiens, UniProt P53778)
T1 construct: with increasing concentrations of exemplary compound 50 and 46 in MDA-MB-231 cells; endogenous in cells; host or cells: MDA-MB-231
From the text: (§1) FIGS. 12A, 12B, and 12C. Characterization of MAPK family degradation selectivity (related to FIGS. 9A, 9B, 9C, 13A, 13B, 13C, and 13D). (A) p38 MAPK family members (α, β, δ, γ) were aligned using the T-Coffee multiple sequence alignment server. Output results were then colored according to conservation (dark turquoise) and identity (lighter shades of turquoise) in Jalview. (B) Table summarizing pairwise sequence alignments (obtained in Jalview) and structural alignments for Ca atoms (obtained in PyMOL) using the doublyphosphorylated (pTGpY) active conformations of p38δ (PDB: 4MYG), p38α (PDB: 3PY3), and p38γ (PDB: 1CM8). No active conformation crystal structure of p38β currently exists. […] MAPK families are also divided based on their phosphorylation lip motif, (pTxpY). Note: JNK1 and JNK2 are expressed as two alternatively-spliced forms. JNK3 was not expressed in these cells.
(§2) To address the mechanistic questions surrounding PROTAC substrate specificity was assessed by synthesizing eight foretinib-based PROTACs that vary by linker length and by orientation of the VHL-recruiting molecule. PROTACs 1 and 48-50 (termed the ‘amide series’) were constructed using the previously-characterized “left-hand side” amide as a connection point for linker attachment to the VHL ligand, while PROTACs 5 and 45-47 (termed the ‘phenyl series’) incorporated an under-explored “right-hand side” phenyl ring attachment point of the linker to the VHL ligand (FIGS. 9A and 9B). […] PROTACs synthesized with different linker lengths, using two different points of attachment to the VHL-recruiting ligand promote distinct E3 ligase interfaces with a given p38 isoform, thereby enabling potential degradation selectivity. Indeed, this strategy of differential orientation of recruited VHL coupled with different PROTAC linker lengths enabled the identification of two PROTACs that each selectively degrade only a single p38 MAPK isoform in MDA-MB-231 cells (FIG. 9C). The examplary compound 50 and exemplary compound 46 result in potent and selective degradation of p38α and p38δ, respectively, without an observable “hook effect” within the tested dose range. […] Crucially, the DC50 for exemplary compound 50 on p38δ is >5 μM, as is the DC50 of exemplary compound 46 for p38α. Additionally, neither exemplary PROTAC degrades either of the two remaining p38 MAPK isoforms (β and γ), despite high sequence and structural conservation.
(§3) Lysates from MDA-MB-231 cells were washed once with ice cold PBS (1×), followed by lysis in buffer containing 25 mM Tris [pH 7.5], 0.25% sodium deoxycholate, 1% Triton X-100, supplemented with 1× protease inhibitor cocktail (Roche) and phosphatase inhibitors (10 mM NaF, 1 mM Na3VO4, and 20 mM β-glycerophosphate), unless otherwise noted. Lysates were spun at 14,000×g for 10 minutes at 4° C. and supernatant was evaluated for protein content using a Pierce BCA Protein Assay (Thermo Fisher Scientific). 25 to 50 μg of protein was loaded onto 10% SDS-PAGE gels or 4-20% Criterion TGX precast gradient gels (Bio-Rad), transferred to nitrocellulose membranes, and probed with the specified antibodies overnight at 4° C. in 1×TBS-Tween (Tris buffered saline plus 0.02% Tween 20) containing 5% non-fat milk. Immunoblots were visualized using a Bio-Rad ChemiDoc imaging instrument and subsequently processed and quantified using the accompanying Bio-Rad ImageLab software.

[2] = biological target: T2, p38β (Homo sapiens, UniProt Q15759)
T2 construct: with increasing concentrations of exemplary compound 50 and 46 in MDA-MB-231 cells; endogenous in cells; host or cells: MDA-MB-231
T2 sequence (Q15759 whole entry): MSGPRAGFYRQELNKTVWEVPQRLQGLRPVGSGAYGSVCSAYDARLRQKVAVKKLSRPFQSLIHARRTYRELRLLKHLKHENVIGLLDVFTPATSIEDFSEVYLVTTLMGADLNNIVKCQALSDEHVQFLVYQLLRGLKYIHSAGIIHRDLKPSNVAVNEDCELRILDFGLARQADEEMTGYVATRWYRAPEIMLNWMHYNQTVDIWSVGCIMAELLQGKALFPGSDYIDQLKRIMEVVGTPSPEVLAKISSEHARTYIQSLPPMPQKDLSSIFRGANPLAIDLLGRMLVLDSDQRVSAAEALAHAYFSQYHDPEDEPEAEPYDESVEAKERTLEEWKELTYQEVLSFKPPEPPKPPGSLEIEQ
From the text: as §1, §2, §3

[3] = biological target: T3, ERK2 (Homo sapiens, UniProt P28482)
T3 construct: with increasing concentrations of exemplary compound 50 and 46 in MDA-MB-231 cells; endogenous in cells; host or cells: MDA-MB-231
T3 sequence (P28482 whole entry): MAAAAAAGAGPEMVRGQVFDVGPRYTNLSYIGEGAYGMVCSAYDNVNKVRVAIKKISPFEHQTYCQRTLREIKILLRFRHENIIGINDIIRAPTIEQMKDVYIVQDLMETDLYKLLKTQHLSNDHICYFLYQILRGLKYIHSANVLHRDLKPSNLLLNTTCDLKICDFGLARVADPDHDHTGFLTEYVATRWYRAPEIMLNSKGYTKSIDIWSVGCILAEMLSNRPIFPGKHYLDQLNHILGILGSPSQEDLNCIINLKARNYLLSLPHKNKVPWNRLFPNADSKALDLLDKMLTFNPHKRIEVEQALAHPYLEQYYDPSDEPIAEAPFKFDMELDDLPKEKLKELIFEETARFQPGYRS
From the text: as §1, §2, §3

[4] = system: JNK2
From the text: as §1, §2, §3

[5] = biological target: T4, ERK1 (Homo sapiens, UniProt P27361)
T4 construct: with increasing concentrations of exemplary compound 50 and 46 in MDA-MB-231 cells; endogenous in cells; host or cells: MDA-MB-231
T4 sequence (P27361 whole entry): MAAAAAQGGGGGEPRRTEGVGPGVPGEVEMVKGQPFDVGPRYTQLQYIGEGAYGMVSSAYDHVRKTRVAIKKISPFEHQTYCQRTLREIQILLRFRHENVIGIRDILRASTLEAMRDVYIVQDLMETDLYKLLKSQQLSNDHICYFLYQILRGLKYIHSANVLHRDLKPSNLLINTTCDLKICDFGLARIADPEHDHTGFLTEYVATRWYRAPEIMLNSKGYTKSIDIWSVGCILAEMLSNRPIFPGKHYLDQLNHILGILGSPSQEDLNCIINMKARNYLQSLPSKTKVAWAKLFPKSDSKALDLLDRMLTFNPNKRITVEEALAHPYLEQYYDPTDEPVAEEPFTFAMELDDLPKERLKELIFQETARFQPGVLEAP
From the text: as §1, §2, §3

[6] = system: JNK1
From the text: as §1, §2, §3

T1 sequence (P53778 whole entry): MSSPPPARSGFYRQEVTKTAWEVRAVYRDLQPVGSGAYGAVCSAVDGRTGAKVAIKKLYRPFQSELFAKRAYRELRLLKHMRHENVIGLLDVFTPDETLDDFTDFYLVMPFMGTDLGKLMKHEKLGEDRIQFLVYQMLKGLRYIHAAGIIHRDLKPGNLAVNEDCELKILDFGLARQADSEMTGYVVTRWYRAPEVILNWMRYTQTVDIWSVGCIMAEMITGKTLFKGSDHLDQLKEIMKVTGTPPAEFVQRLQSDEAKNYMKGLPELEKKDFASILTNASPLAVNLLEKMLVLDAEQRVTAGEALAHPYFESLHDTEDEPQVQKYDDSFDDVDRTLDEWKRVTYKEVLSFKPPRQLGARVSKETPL

SMILES	degradation of p38γ [1]	degradation of p38β [2]	degradation of ERK2 [3]	degradation of JNK2 [4]	degradation of ERK1 [5]	degradation of JNK1 [6]
COc1cc2c(Oc3ccc(NC(=O)C4(C(=O)Nc5ccc(F)cc5)CC4)cc3F)ccnc2cc1OCCOCCOCCOc1cc(-c2scnc2C)ccc1CNC(=O)[C@@H]1C[C@@H](O)CN1C(=O)[C@H](C(C)C)N1Cc2ccccc2C1=O [compound 46]	lack of degradation	lack of degradation	lack of degradation	lack of degradation	lack of degradation	lack of degradation
COc1cc2c(Oc3ccc(NC(=O)C4(C(=O)Nc5ccc(F)cc5)CC4)cc3F)ccnc2cc1OCCCCOCCCCOCC(=O)N[C@H](C(=O)N1C[C@H](O)C[C@H]1C(=O)NCc1ccc(-c2scnc2C)cc1)C(C)(C)C [compound 50, N-(3-fluoro-4-((7-(4-(4-(2-(((S)-1-((2S,4R)-4-hydroxy-2-((4-(4-methylthiazol-5-yl)benzyl)carbamoyl)pyrrolidin-1-yl)-3,3-dimethyl-1-oxobutan-2-yl)amino)-2-oxoethoxy)butoxy)buto-xy)-6-methoxyquinolin-4-yl)oxy)phenyl)-N-(4-fluorophenyl)cyclopropane-1,1-dicarboxa-mide]	lack of degradation	lack of degradation	lack of degradation	lack of degradation	lack of degradation	lack of degradation
